US20060069132A1, “Azolecarboxamide herbicides” (priority 2004, published 2006)
Where two headings read alike, the source gives them in different places.

Key:
morningglory = experiment: Test B pre-/postemergence herbicide test; type: in vivo, Ipomoea coccinea; conditions: Ipomoea, 336 h; for pest or weed control at 125 g/ha: 125 g ai/ha
How it was run: (§1)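 Formulation: non-phytotoxic solvent mix with surfactant. Timing: preemergence on seed and postemergence on 2–18 cm plants, applied concurrently. Readout after 13–15 d greenhouse: visual 0–100 control rating against controls.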

barnyardgrass [1] = experiment: Test B pre-/postemergence herbicide test; type: in vivo, Echinochloa crus-galli; conditions: Echinochloa crus-galli; for pest or weed control at 500 g/ha: 500 g ai/ha; for pest or weed control at 125 g/ha: 125 g ai/ha
How it was run: as §1

ducksalad = experiment: Test B flooded paddy test; type: in vivo, Heteranthera limosa; conditions: Heteranthera limosa, 336 h, 1000 g ai/ha, visual rating, scale 0 to 100 (0 no effect, 100 complete control), 13 to 15 days, read-out: Ducksalad plant response rating
How it was run: (§2)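 Scale 0–100: zero equals no visible effect, 100 complete control, judged by eye relative to controls. Timing: 13 to 15 days in greenhouse post-treatment. Growth stage at spraying: two leaves (paddy) or one to four leaves, 2–18 cm (postemergence).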

wheat = experiment: Test B postemergence herbicide test; type: in vivo, Triticum aestivum; conditions: scale 0 (no effect) to 100 (complete control)
How it was run: (§3)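 Read-out: visual comparison with controls, scored 0 to 100, where 100 means complete control and 0 no effect. Formulated chemicals were applied postemergence to plants 2–18 cm tall (1- to 4-leaf), or to flooded-paddy plants at the 2-leaf stage, then held 13 to 15 days under glass.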

pigweed = experiment: Test B pre-/postemergence herbicide test; type: in vivo, Amaranthus retroflexus; conditions: Amaranthus retroflexus, 336 h; for pest or weed control at 125 g/ha: 125 g ai/ha
How it was run: (§4)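 Flooded paddy rice and barnyardgrass were treated at the 2-leaf stage; upland plantings received compound either on sown seed or on 1- to 4-leaf seedlings. All were kept 13–15 days in a greenhouse and scored visually, 0–100, relative to untreated plants.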

Surinam grass = experiment: Test B pre-/postemergence herbicide test; type: in vivo, Urochloa decumbens; conditions: Urochloa decumbens; for pest or weed control at 125 g/ha: 125 g ai/ha
How it was run: as §4

lambsquarters = experiment: Test B pre-/postemergence herbicide test; type: in vivo, Chenopodium album; conditions: Chenopodium album, 336 h; for pest or weed control at 125 g/ha: 125 g ai/ha
How it was run: as §4

giant foxtail = experiment: Test B pre-/postemergence herbicide test; type: in vivo, Setaria faberi; conditions: Setaria faberi, 336 h; for pest or weed control at 500 g/ha: 500 g ai/ha; for pest or weed control at 125 g/ha: 125 g ai/ha
How it was run: as §4

rice = experiment: Test B flooded paddy test; type: in vivo, Oryza sativa; conditions: Oryza sativa, 336 h, 1000 g ai/ha, visual rating, scale 0 to 100 (0 no effect, 100 complete control), 13 to 15 days, read-out: Rice plant response rating
How it was run: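 After treating 2-leaf paddy plants or 2–18 cm postemergence plants (1 to 4 leaves) with formulated chemical, researchers kept them in a greenhouse for 13–15 days. Effects were judged visually versus controls: 0 indicates none, 100 total control.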

large crabgrass = experiment: Test B pre-/postemergence herbicide test; type: in vivo, Digitaria sanguinalis; conditions: Digitaria sanguinalis; for pest or weed control at 500 g/ha: 500 g ai/ha; for pest or weed control at 125 g/ha: 125 g ai/ha
How it was run: as §4

cocklebur = experiment: Test B pre-/postemergence herbicide test; type: in vivo, Xanthium strumarium; conditions: Xanthium strumarium; for pest or weed control at 500 g/ha: 500 g ai/ha; for pest or weed control at 125 g/ha: 125 g ai/ha
How it was run: as §1

corn = experiment: Test B pre-/postemergence herbicide test; type: in vivo, Zea mays; conditions: Zea mays
How it was run: as §4

barnyardgrass [2] = experiment: Test B flooded paddy test; type: in vivo, Echinochloa crus-galli; conditions: Echinochloa crus-galli, 336 h, 1000 g ai/ha, visual rating, scale 0 to 100 (0 no effect, 100 complete control), 13 to 15 days, read-out: Barnyardgrass plant response rating
How it was run: as §2

wild oat = experiment: Test B postemergence herbicide test; type: in vivo, Avena fatua; conditions: scale 0 (no effect) to 100 (complete control)
How it was run: as §3

velvetleaf = experiment: Test B pre-/postemergence herbicide test; type: in vivo, Abutilon theophrasti; conditions: Abutilon theophrasti, 336 h; for pest or weed control at 125 g/ha: 125 g ai/ha
How it was run: as §4

[3] = Postemergence, 500 g ai/ha, visual rating after 13 to 15 days

CCn1nc(C(C)(C)C)cc1C(=O)Nc1cccc(C(=O)OCCF)c1 [Compound 82, 2-fluoroethyl 3-[[[3-(1,1-dimethylethyl)-1-ethyl-1H-pyrazol-5-yl]-carbonyl]amino]benzoate]
pest or weed control at 500 g/ha (morningglory; post-emergence, Postemergence, 500 g ai/ha, visual rating after 13 to 15 days, scale 0 (no effect) to 100 (complete control), read-out: Plant response rating, Morningglory): 70% | pest or weed control at 125 g/ha (morningglory; post-emergence, postemergence, visual rating, scale 0 (no effect) to 100 (complete control), read-out: Morningglory plant response rating): 10% | pest or weed control at 125 g/ha (morningglory; pre-emergence, preemergence, 0 to 100 scale, 0 is no effect, 100 is complete control, read-out: Plant response rating, Morningglory): 0% | pest or weed control at 500 g/ha (barnyardgrass [1]; post-emergence, Postemergence, visual rating after 13 to 15 days, scale 0 (no effect) to 100 (complete control), read-out: Plant response rating, Barnyardgrass): 20% | pest or weed control at 125 g/ha (barnyardgrass [1]; post-emergence, postemergence, visual rating, scale 0 (no effect) to 100 (complete control), read-out: Barnyardgrass plant response rating): 10% | pest or weed control at 500 g/ha (barnyardgrass [1]; pre-emergence, Preemergence, scale 0 to 100, read-out: Barnyardgrass plant response rating): 0% | pest or weed control at 125 g/ha (barnyardgrass [1]; pre-emergence, preemergence, 0 to 100 scale, 0 is no effect, 100 is complete control, read-out: Plant response rating, Barnyardgrass): 0% | pest or weed control at 1000 g/ha (ducksalad): 20% | Plant response rating, Wheat (wheat; [3]): 20 | plant injury at 125 g/ha (wheat; Triticum aestivum, post-emergence, 336 h, postemergence, 125 g ai/ha, visual rating, read-out: Wheat plant response rating): 20% | pest or weed control at 500 g/ha (pigweed; post-emergence, Postemergence, 500 g ai/ha, visual rating after 13 to 15 days, scale 0 (no effect) to 100 (complete control), read-out: Plant response rating, Pigweed): 100% | pest or weed control at 125 g/ha (pigweed; post-emergence, postemergence, visual rating, scale 0 (no effect) to 100 (complete control), read-out: Pigweed plant response rating): 80% | pest or weed control at 125 g/ha (pigweed; pre-emergence, preemergence, 0 to 100 scale, 0 is no effect, 100 is complete control, read-out: Plant response rating, Pigweed): 0% | pest or weed control at 500 g/ha (Surinam grass; post-emergence, Postemergence, 500 g ai/ha, visual rating after 13 to 15 days, scale 0 (no effect) to 100 (complete control), read-out: Plant response rating, Surinam Grass): 60% | pest or weed control at 125 g/ha (Surinam grass; post-emergence, postemergence, visual rating, scale 0 (no effect) to 100 (complete control), read-out: Surinam Grass plant response rating): 30% | pest or weed control at 125 g/ha (Surinam grass; pre-emergence, preemergence, 0 to 100 scale, 0 is no effect, 100 is complete control, read-out: Plant response rating, Surinam Grass): 0% | pest or weed control at 500 g/ha (lambsquarters; post-emergence, Postemergence, 500 g ai/ha, visual rating after 13 to 15 days, scale 0 (no effect) to 100 (complete control), read-out: Plant response rating, Lambsquarters): 50% | pest or weed control at 125 g/ha (lambsquarters; post-emergence, postemergence, visual rating, scale 0 (no effect) to 100 (complete control), read-out: Lambsquarters plant response rating): 20% | pest or weed control at 125 g/ha (lambsquarters; pre-emergence, preemergence, 0 to 100 scale, 0 is no effect, 100 is complete control, read-out: Plant response rating, Lambsquarters): 0% | pest or weed control at 500 g/ha (giant foxtail; post-emergence, Postemergence, visual rating after 13 to 15 days, scale 0 (no effect) to 100 (complete control), read-out: Plant response rating, Foxtail, Giant): 10% | pest or weed control at 125 g/ha (giant foxtail; post-emergence, postemergence, visual rating, scale 0 (no effect) to 100 (complete control), read-out: Foxtail, Giant plant response rating): 10% | pest or weed control at 500 g/ha (giant foxtail; pre-emergence, Preemergence, scale 0 to 100, read-out: Foxtail, Giant plant response rating): 0% | pest or weed control at 125 g/ha (giant foxtail; pre-emergence, preemergence, 0 to 100 scale, 0 is no effect, 100 is complete control, read-out: Plant response rating, Foxtail, Giant): 0% | plant injury at 1000 g/ha (rice): 40% | pest or weed control at 500 g/ha (large crabgrass; post-emergence, Postemergence, visual rating after 13 to 15 days, scale 0 (no effect) to 100 (complete control), read-out: Plant response rating, Crabgrass, Large): 20% | pest or weed control at 125 g/ha (large crabgrass; post-emergence, postemergence, visual rating, scale 0 (no effect) to 100 (complete control), read-out: Crabgrass, Large plant response rating): 10% | pest or weed control at 500 g/ha (large crabgrass; pre-emergence, Preemergence, scale 0 to 100, read-out: Crabgrass, Large plant response rating): 0% | pest or weed control at 125 g/ha (large crabgrass; pre-emergence, preemergence, 0 to 100 scale, 0 is no effect, 100 is complete control, read-out: Plant response rating, Crabgrass, Large): 0% | pest or weed control at 500 g/ha (cocklebur; post-emergence, Postemergence, visual rating after 13 to 15 days, scale 0 (no effect) to 100 (complete control), read-out: Plant response rating, Cocklebur): 100% | pest or weed control at 125 g/ha (cocklebur; post-emergence, postemergence, visual rating, scale 0 (no effect) to 100 (complete control), read-out: Cocklebur plant response rating): 80% | pest or weed control at 500 g/ha (cocklebur; pre-emergence, Preemergence, scale 0 to 100, read-out: Cocklebur plant response rating): 0% | pest or weed control at 125 g/ha (cocklebur; pre-emergence, preemergence, 0 to 100 scale, 0 is no effect, 100 is complete control, read-out: Plant response rating, Cocklebur): 0% | Corn plant response rating (crop injury, 0 = no effect, 100 = complete kill) at 500 g/ha (corn; post-emergence, Postemergence, 500 g ai/ha, visual rating after 13 to 15 days, scale 0 (no effect) to 100 (complete control)): 30% | plant injury at 125 g/ha (corn; post-emergence, postemergence, 125 g ai/ha, visual rating, scale 0 (no effect) to 100 (complete control), read-out: Corn plant response rating): 20% | plant injury at 500 g/ha (corn; pre-emergence, Preemergence, 500 g ai/ha, scale 0 to 100, read-out: Corn plant response rating): 0% | Corn plant response rating (crop injury, 0 = no effect, 100 = complete kill) at 125 g/ha (corn; pre-emergence, preemergence, 125 g ai/ha, 0 to 100 scale, 0 is no effect, 100 is complete control): 0% | pest or weed control at 1000 g/ha (barnyardgrass [2]): 30% | pest or weed control at 125 g/ha (wild oat; Avena fatua, post-emergence, 336 h, postemergence, 125 g ai/ha, visual rating, read-out: Oat, Wild plant response rating): 10% | Plant response rating, Oat, Wild (wild oat; [3]): 30 | pest or weed control at 500 g/ha (velvetleaf; post-emergence, Postemergence, 500 g ai/ha, visual rating after 13 to 15 days, scale 0 (no effect) to 100 (complete control), read-out: Plant response rating, Velvetleaf): 90% | pest or weed control at 125 g/ha (velvetleaf; post-emergence, postemergence, visual rating, scale 0 (no effect) to 100 (complete control), read-out: Velvetleaf plant response rating): 80% | pest or weed control at 125 g/ha (velvetleaf; pre-emergence, preemergence, 0 to 100 scale, 0 is no effect, 100 is complete control, read-out: Plant response rating, Velvetleaf): 0%
